From patent publication US9353082B2, “Pharmaceutical compounds” (BIAL—PORTELA & CA, S.A., priority 2008, dated 2016)

Experiments:
[1] = target: T1, monoacylglycerol lipase (MAGL) (Rattus norvegicus, UniProt Q8R431); assay: MAGL activity in rat cerebella cytosol (CRBcyt), hydrolysis of [3H] 2-OG; type: biochemical, WISTAR rats; details: 12.5 uM compound, remaining MAGL activity
T1 construct: cerebella cytosol (CRBcyt) fractions, previously obtained from adult WISTAR rats; from tissue; host or cells: adult Wistar rat cerebella, cytosol fraction
T1 sequence (Q8R431 1-303): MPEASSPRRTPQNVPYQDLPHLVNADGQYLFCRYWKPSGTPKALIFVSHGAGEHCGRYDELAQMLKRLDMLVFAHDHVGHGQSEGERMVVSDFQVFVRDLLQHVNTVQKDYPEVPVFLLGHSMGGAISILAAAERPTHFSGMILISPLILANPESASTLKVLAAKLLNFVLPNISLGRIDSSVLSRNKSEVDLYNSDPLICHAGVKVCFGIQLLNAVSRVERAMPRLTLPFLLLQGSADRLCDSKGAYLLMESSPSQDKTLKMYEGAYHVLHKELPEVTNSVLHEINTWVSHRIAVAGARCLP
Protocol: FAAH inhibition was determined as described above. Inhibition of monoacylglycerol lipase (MAGL) and carboxylesterase (CE) was performed according to the protocols described below. The controls for both in vitro and in vivo were the reaction mix minus the test compounds. Therefore, a low value in Table 2 below for the test compounds indicates a strong inhibitor.
MAGL activity measurement was based on rate of hydrolysis of [^3H] 2-OG (glycerol labeled) as substrate. Briefly, cerebella cytosol (CRBcyt) fractions, previously obtained from adult WISTAR rats, were diluted to appropriate assay protein concentrations in Tris-HCl buffer (10 mM, pH 7.2) containing 1 mM EDTA, and were added to assay tubes containing test compound. Blanks contained assay buffer instead of cytosol samples were used as control. […] The final assay contained 0.125% w v^−1 fatty acid-free BSA. After the incubation phase, reactions were stopped by adding 400 μL chloroform:methanol (1/1 v v^−1), vortex mixing the tubes two times and placing them on ice. Phases were separated by centrifugation and 200 μL aliquots of the methanol/buffer phase were taken and tritium content assayed by liquid scintillation spectroscopy with quench correction.

FAAH = target: T2, FAAH (Rattus norvegicus, UniProt P97612); assay: In vitro FAAH activity in rat brain membranes, 3H-AEA substrate, % of control; type: biochemical, Wistar rats; details: low value = strong inhibitor
T2 construct: Frozen brains (without cerebellum) from Wistar rats were used; from tissue; host or cells: Wistar rat brain (without cerebellum), washed membrane pellets
T2 sequence (P97612 1-579): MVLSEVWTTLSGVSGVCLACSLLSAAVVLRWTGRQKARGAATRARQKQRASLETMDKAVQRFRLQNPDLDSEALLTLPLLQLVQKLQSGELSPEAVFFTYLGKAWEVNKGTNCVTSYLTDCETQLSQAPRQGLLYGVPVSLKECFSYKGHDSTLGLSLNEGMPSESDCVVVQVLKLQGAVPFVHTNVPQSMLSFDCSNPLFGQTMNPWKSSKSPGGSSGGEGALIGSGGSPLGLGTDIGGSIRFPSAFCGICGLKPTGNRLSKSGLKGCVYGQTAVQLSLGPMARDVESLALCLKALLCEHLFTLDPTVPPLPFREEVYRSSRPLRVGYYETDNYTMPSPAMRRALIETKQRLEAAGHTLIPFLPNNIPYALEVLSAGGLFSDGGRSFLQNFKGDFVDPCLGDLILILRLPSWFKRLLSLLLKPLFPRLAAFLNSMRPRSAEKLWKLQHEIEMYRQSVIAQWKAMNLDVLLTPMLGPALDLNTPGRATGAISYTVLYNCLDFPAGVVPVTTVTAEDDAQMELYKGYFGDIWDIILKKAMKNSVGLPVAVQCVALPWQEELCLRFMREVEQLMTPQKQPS
Procedure, shortened: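 Wistar rat brain membranes (5 μg protein) preincubated 15 min at 37 °C with compound at 10 μM or 0.1 μM (0.1% DMSO), then 2 μM AEA including 3H-AEA with 0.1% BSA, Tris pH 7.6, 10 min. 3H-ethanolamine counted after charcoal stop; % of no-compound control after blank subtraction.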

COc1cccc(-c2cn(C(=O)N3CCCc4ccccc43)cn2)c1 [Compound 39, (3,4-dihydroquinolin-1(2H)-yl)(4-(3-methoxyphenyl)-1H-imidazol-1-yl)methanone]
MAGL Rat CRBcyto 12.5 uM 8 min [1]: 87 % of control | FAAH 10 uM (FAAH; 10 uM compound, rat brain membranes, 100 = no measurable inhibition): 16 % of control | In Vitro FAAH activity, 10 uM (FAAH; 10 uM test compound): 16 % of control
